Data as given in ChEMBL document CHEMBL1201862, “PubChem BioAssay data set” (2004).
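96-well plates; 48 h exposure; 5 concentrations. Endpoints by linear interpolation between flanking doses. Not reached: highest tested concentration assigned. GI50: concentration for 50% inhibition of growth.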 Active and inactive are the calls of the source. Rule as the data show it: active = GI50 up to about 1.1 µM and inactive = higher.

Legend:
Assay in all cases: NCI anticancer screen, dose series, 48 h
HL-60 = tested on: HL-60
NCI-H226 = tested on: NCI-H226
Malme-3M = tested on: Malme-3M
ACHN = tested on: ACHN
RXF 393 = tested on: RXF 393
SNB-19 = tested on: SNB-19
TK-10 = tested on: TK-10
COLO 205 = tested on: COLO 205
SK-MEL-5 = tested on: SK-MEL-5
NCI-H522 = tested on: NCI-H522
OVCAR-4 = tested on: OVCAR-4
HOP-62 = tested on: HOP-62
CCRF-CEM = tested on: CCRF-CEM
T47D = tested on: T47D
IGROV-1 = tested on: IGROV-1
A549 = tested on: A549
LOX IMVI = tested on: LOX IMVI
NCI-H460 = tested on: NCI-H460
UACC-257 = tested on: UACC-257
RPMI-8226 = tested on: RPMI-8226

Measured: GI50

CSC1(SC2=NCCN2)SC2(NCCN2)S1
inactive: HL-60 21 µM | NCI-H226 27.2 µM | Malme-3M 17.6 µM | ACHN 19 µM | RXF 393 7.53 µM | SNB-19 20.3 µM | TK-10 6.34 µM | COLO 205 21.3 µM | SK-MEL-5 18.9 µM | NCI-H522 11.8 µM | OVCAR-4 20.4 µM | HOP-62 17.5 µM | CCRF-CEM 1.21 µM | IGROV-1 18.6 µM | A549 20.3 µM | LOX IMVI 10.5 µM | NCI-H460 20.5 µM | UACC-257 20.6 µM | RPMI-8226 2.77 µM
active: T47D 0.9 µM

CC(=O)N(C)c1ccc(Nc2ccnc3ccc4nn(C)nc4c23)cc1
inactive: HL-60 18.4 µM | NCI-H226 15.6 µM | Malme-3M 18.9 µM | ACHN 13.7 µM | RXF 393 16.9 µM | SNB-19 37.3 µM | TK-10 22.3 µM | COLO 205 19.1 µM | SK-MEL-5 19.9 µM | NCI-H522 19 µM | OVCAR-4 28.4 µM | HOP-62 26 µM | CCRF-CEM 17.3 µM | T47D 20.1 µM | A549 17.5 µM | LOX IMVI 16 µM | UACC-257 21.7 µM | RPMI-8226 20.3 µM

COC(=O)C(=O)Nc1cc2c3c(c1)Oc1cccc4c1C3(C)c1c(cccc1O2)O4
active: HL-60 0.105 µM
inactive: NCI-H226 4.75 µM | Malme-3M > 65.9 µM | ACHN > 82 µM | RXF 393 18.7 µM | SNB-19 > 100 µM | TK-10 99.5 µM | COLO 205 > 31.6 µM | SK-MEL-5 > 100 µM | NCI-H522 > 86.3 µM | OVCAR-4 > 100 µM | HOP-62 > 100 µM | CCRF-CEM 1.26 µM | T47D > 61.7 µM | IGROV-1 55.8 µM | A549 > 100 µM | LOX IMVI 71.3 µM | NCI-H460 > 100 µM | UACC-257 > 100 µM | RPMI-8226 > 44.8 µM

C/C=C(/C)C(=O)OC1CC(C)[C@H]2CC(=O)C(C)=C2CC1C(C)(C)OC(C)=O (stereo not given in full)
inactive: HL-60 21.4 µM | NCI-H226 37.4 µM | Malme-3M 19.3 µM | ACHN 35.6 µM | RXF 393 22.5 µM | SNB-19 34.4 µM | TK-10 28.8 µM | COLO 205 17.9 µM | SK-MEL-5 15.9 µM | NCI-H522 19.5 µM | OVCAR-4 22.2 µM | HOP-62 28.9 µM | CCRF-CEM 25.6 µM | T47D 15.4 µM | IGROV-1 53.8 µM | A549 30.3 µM | LOX IMVI 17.9 µM | NCI-H460 19.3 µM | UACC-257 20.9 µM | RPMI-8226 22.9 µM

CC(C)(C)O/N=C/c1cc(NC(=S)c2ccsc2)ccc1Cl
inactive: HL-60 17.2 µM | NCI-H226 14 µM | Malme-3M 14.3 µM | RXF 393 14.1 µM | TK-10 13.7 µM | COLO 205 14.9 µM | SK-MEL-5 3.99 µM | NCI-H522 13.3 µM | OVCAR-4 14.6 µM | HOP-62 16 µM | CCRF-CEM 10.7 µM | T47D 4.01 µM | IGROV-1 16.7 µM | A549 17.5 µM | LOX IMVI 16 µM | UACC-257 12.6 µM | RPMI-8226 2.75 µM

COc1ccc(C(SCCO)(c2ccccc2)c2ccc(OC)cc2)cc1
inactive: HL-60 21.3 µM | NCI-H226 13.6 µM | Malme-3M 16.4 µM | ACHN 16 µM | RXF 393 8.24 µM | SNB-19 8.26 µM | TK-10 18.1 µM | COLO 205 17.9 µM | SK-MEL-5 8 µM | NCI-H522 10.8 µM | OVCAR-4 15.8 µM | HOP-62 15.8 µM | CCRF-CEM 12.6 µM | T47D 11.9 µM | IGROV-1 16.8 µM | A549 11 µM | LOX IMVI 16.5 µM | NCI-H460 4.61 µM | UACC-257 14.7 µM | RPMI-8226 24.9 µM

N#CC[C@@H](O)COc1ccccc1
inactive: HL-60 > 100 µM | NCI-H226 > 100 µM | Malme-3M > 100 µM | ACHN > 100 µM | RXF 393 > 100 µM | SNB-19 > 100 µM | TK-10 > 100 µM | COLO 205 > 100 µM | SK-MEL-5 > 100 µM | NCI-H522 > 100 µM | OVCAR-4 > 100 µM | HOP-62 > 100 µM | CCRF-CEM > 100 µM | T47D > 100 µM | A549 > 100 µM | LOX IMVI > 100 µM | NCI-H460 > 100 µM | UACC-257 > 100 µM | RPMI-8226 > 100 µM

COC(=O)/C=C/c1ccc2c(c1)CC1(Cc3ccccc3C1)C2
inactive: HL-60 30.5 µM | NCI-H226 > 100 µM | Malme-3M > 100 µM | ACHN > 100 µM | RXF 393 16.5 µM | TK-10 > 100 µM | COLO 205 > 100 µM | SK-MEL-5 43.2 µM | NCI-H522 56.9 µM | OVCAR-4 > 100 µM | HOP-62 > 100 µM | CCRF-CEM 28 µM | T47D > 100 µM | IGROV-1 > 100 µM | LOX IMVI > 100 µM | UACC-257 > 100 µM | RPMI-8226 60.7 µM
active: A549 0.0463 µM

COc1cc(OC)cc(Oc2nc3ccc(C(F)(F)F)cc3nc2-c2ccccc2)c1
inactive: HL-60 > 100 µM | NCI-H226 > 100 µM | Malme-3M > 100 µM | ACHN > 100 µM | RXF 393 > 100 µM | TK-10 > 100 µM | COLO 205 > 100 µM | SK-MEL-5 > 100 µM | NCI-H522 > 100 µM | OVCAR-4 > 100 µM | HOP-62 > 100 µM | CCRF-CEM > 100 µM | T47D 28.4 µM | IGROV-1 > 100 µM | A549 > 100 µM | LOX IMVI > 100 µM | NCI-H460 > 100 µM | UACC-257 > 100 µM | RPMI-8226 52.5 µM

Cc1nc2ccc(F)cc2c2c1CCO2
inactive: HL-60 24.5 µM | NCI-H226 > 100 µM | Malme-3M > 100 µM | ACHN > 100 µM | RXF 393 36.8 µM | SNB-19 > 100 µM | TK-10 > 100 µM | COLO 205 72.8 µM | SK-MEL-5 43.5 µM | NCI-H522 > 100 µM | OVCAR-4 > 100 µM | CCRF-CEM > 100 µM | T47D 52.6 µM | IGROV-1 > 100 µM | A549 > 100 µM | LOX IMVI > 100 µM | NCI-H460 61.1 µM | UACC-257 > 100 µM | RPMI-8226 80 µM

CN(c1ccc(Cl)cc1)S(=O)(=O)c1ccc([N+](=O)[O-])cc1
inactive: HL-60 59.4 µM | NCI-H226 > 100 µM | Malme-3M 84.7 µM | ACHN > 100 µM | RXF 393 > 100 µM | SNB-19 > 100 µM | TK-10 > 100 µM | COLO 205 > 100 µM | SK-MEL-5 26 µM | NCI-H522 > 100 µM | OVCAR-4 > 100 µM | HOP-62 > 100 µM | CCRF-CEM > 100 µM | T47D > 100 µM | IGROV-1 > 100 µM | A549 > 100 µM | LOX IMVI > 100 µM | NCI-H460 > 100 µM | UACC-257 > 100 µM | RPMI-8226 > 100 µM

COc1ccc(N2C(=O)C(Cl)C2c2cc3cc(Br)ccc3nc2Cl)cc1 (stereo not given)
active: LOX IMVI 0.838 µM
inactive: HL-60 5.98 µM | NCI-H226 5.62 µM | Malme-3M 4.94 µM | ACHN 4.89 µM | RXF 393 4.09 µM | SNB-19 9.93 µM | TK-10 7.52 µM | COLO 205 4.91 µM | SK-MEL-5 4.37 µM | NCI-H522 3.81 µM | OVCAR-4 4.36 µM | HOP-62 6.44 µM | CCRF-CEM 1.86 µM | T47D 15.1 µM | IGROV-1 5.12 µM | A549 11 µM | NCI-H460 5.33 µM | UACC-257 5.2 µM | RPMI-8226 6.59 µM

CCCCCCCCCCCCOCCCOP(=O)([O-])OCC[N+](C)(C)C
inactive: HL-60 7.21 µM | NCI-H226 24.3 µM | Malme-3M 64.7 µM | ACHN 30.6 µM | RXF 393 9.75 µM | SNB-19 20.6 µM | TK-10 3.4 µM | COLO 205 6.75 µM | SK-MEL-5 48.6 µM | NCI-H522 22.7 µM | OVCAR-4 22.1 µM | HOP-62 43.2 µM | CCRF-CEM 21.1 µM | T47D 3.64 µM | IGROV-1 6.14 µM | A549 64 µM | LOX IMVI 32.2 µM | NCI-H460 13.9 µM | UACC-257 > 76 µM | RPMI-8226 9.08 µM

CC(=O)OCCOCn1cnc2c(Cl)nc(Cl)nc21
inactive: HL-60 2.65 µM | NCI-H226 19.2 µM | Malme-3M 15.8 µM | ACHN 16.5 µM | RXF 393 > 10 µM | SNB-19 31.2 µM | TK-10 39.4 µM | COLO 205 18.6 µM | SK-MEL-5 18.1 µM | NCI-H522 2.05 µM | OVCAR-4 19.1 µM | HOP-62 17.7 µM | CCRF-CEM 6.37 µM | T47D 10 µM | IGROV-1 14.3 µM | A549 > 10 µM | LOX IMVI 4.3 µM | NCI-H460 18.5 µM | UACC-257 17.1 µM | RPMI-8226 5.97 µM
